Measurements from publication PMC6158189, “A pharmacological probe identifies cystathionine β-synthase as a new negative regulator for ferroptosis” (Cell Death & Disease, 2018).
“Also recorded” adds a separate entry of the source.

Legend:
[1] = system: HepG2 cells; test: cell death, FITC Annexin V kit, flow cytometry; type: cell-based, human; conditions: 40 μM, 12 h
Experimental: Fig. 4 CH004 arrests the cell cycle at the S phase. a CH004 reduces the cell viability of HEK293T and HepG2 cells. HEK293T or HepG2 cells were treated with indicated concentrations of CH004 for 24 h before the cell number was analyzed using the CellTiter96® Aqueous One Solution Cell Proliferation Assay (Promega, Materials and Methods). The means at each concentration of one representative experiment are shown as percentages of DMSO (control, 100%). Means ± SDs (n = 3). b Overexpression of hCBS or knock-down of hCBS counteracts the growth inhibition exerted by CH004 in HEK293T cells. Indicated HEK293T stable cell lines were treated with the CH004 or DMSO for 24 h. Then, the cell viability was quantified with the CellTiter 96® Aqueous One Solution Cell Proliferation Assay under the standard protocol (Promega). […] The efficacy for CBS overexpression and knock-down in HEK293T cells was determined by Western blotting using an anti-CBS antibody (3E1, 1:2000; Abnova). c CH004 induces cell death in HEK293T and HepG2 cells. […] HEK293T cells were incubated with indicated compounds for 12 h, and the DNA content was quantified with propidium iodide to analyze the cell cycle distribution by flow cytometry (e). The cell cycle distributions for HEK293T-shNT and HEK293T-shCBS cells were accordingly analyzed and are shown in f. […]

[2] = biological target: T1, hCBS (Homo sapiens, UniProt P35520); test: rapid dilution reversibility experiment; type: biochemical; conditions: 10 μM, 40 min pre-incubation with 20 μM hCBS, 200-fold dilution
T1 construct: GST (N); made in house; host or cells: E. coli BL21
T1 sequence (P35520 1-551): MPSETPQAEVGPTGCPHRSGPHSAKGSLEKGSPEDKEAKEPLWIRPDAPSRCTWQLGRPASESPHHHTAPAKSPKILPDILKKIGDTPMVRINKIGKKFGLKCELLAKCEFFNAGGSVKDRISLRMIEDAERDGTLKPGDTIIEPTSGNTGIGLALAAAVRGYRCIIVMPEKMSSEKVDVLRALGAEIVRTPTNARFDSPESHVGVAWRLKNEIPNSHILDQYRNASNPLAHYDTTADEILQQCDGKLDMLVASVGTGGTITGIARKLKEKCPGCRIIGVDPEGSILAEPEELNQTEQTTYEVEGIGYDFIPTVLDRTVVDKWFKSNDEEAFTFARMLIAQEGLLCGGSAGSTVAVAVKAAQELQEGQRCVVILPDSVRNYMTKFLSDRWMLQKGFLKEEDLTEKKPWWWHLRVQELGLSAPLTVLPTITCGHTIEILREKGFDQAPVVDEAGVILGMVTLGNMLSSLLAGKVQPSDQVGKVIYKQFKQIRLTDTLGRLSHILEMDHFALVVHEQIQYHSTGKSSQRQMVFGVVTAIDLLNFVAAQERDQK
Experimental: Figure S2. The mode of action of CH004 in inhibiting hCBS. […] After incubation with DMSO or CH004 at 10 μM for 40 min, hCBS (20 μM) was diluted 200-fold and the activity was measured according to the standard assay protocol (Materials and Methods). The data are presented as percentages of control (CTR; DMSO, 100%) and shown as means ± SDs (n = 5). The effects of 0.05 and 10 μM CH004 on hCBS (100 nM) without pre-incubation were defined as positive control (PC) and negative control (NC), respectively. (B) Inhibition of hCBS by CH004 as a function of PLP concentration with Cys (20 mM) together with Hcys (10 mM) as substrates (non-competitive inhibition constant αKi=15.2 ± 4.9 μM). (C) Inhibition of hCBS by CH004 as a function of Cys concentration in the presence of 100 μM PLP and the absence of Hcys (mixed inhibition constant αKi=26.4 ± 8 μM). (D) Inhibition of hCBS by CH004 as a function of Hcys concentration in the presence of 20 mM Cys and 100 μM PLP (mixed inhibition constant αKi’=7.2 ± 1.6 μM). Each point in the Lineweaver-Burk plots represents the means of triplicate. The αKi or αKi’ values were calculated by using the non-linear fitting method for enzyme kinetics in GraphPad Prism 5. (E) Surface Plasmon Resonance assays analysis of the binding of CH004 to hCBS. […] Dissociation constants for CH004 (KD) were calculated by using Biacore evaluation software (Materials and Methods).

SMILES: Cn1nc(Cc2ccccc2)nc2c(=O)n(C)c(=O)nc1-2 [CH004, 3-benzyl-1,6-dimethylpyrimido[5,4-e][1,2,4]triazine-5,7(1H,6H)-dione]
- increase in cell death [1]: ~ 80%
- reversibility of binding to hCBS [2]: binds reversibly; also recorded: reversibly binds
